Values joined by “and” are separate entries in the source; they are usually repeats but may differ in a detail not shown here. Equal values may be shown once.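 A five-concentration, 48-hour dose response in 96-well plates underlies each endpoint, interpolated linearly between surrounding concentrations. Abbreviation: GI50, concentration required for 50% inhibition of growth.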 Active and inactive are the calls of the source. No stated cut-off is given here; in the data, active = GI50 up to about 1.1 µM and inactive = higher.
Experiments:
Test in all cases: NCI-60 cell line screen, 48 h
SF-295 = tested on: SF-295
PC-3 = tested on: PC-3
NCI-H226 = tested on: NCI-H226
IGROV-1 = tested on: IGROV-1
NCI-H460 = tested on: NCI-H460
UO-31 = tested on: UO-31
ACHN = tested on: ACHN
NCI/ADR-RES = tested on: NCI/ADR-RES
HCT-116 = tested on: HCT-116
SNB-19 = tested on: SNB-19
SK-MEL-2 = tested on: SK-MEL-2
HCT-15 = tested on: HCT-15
EKVX = tested on: EKVX
NCI-H522 = tested on: NCI-H522
T47D = tested on: T47D
OVCAR-4 = tested on: OVCAR-4
HT-29 = tested on: HT-29
MDA-MB-231 = tested on: MDA-MB-231
Hs-578T = tested on: Hs-578T

SMILES	GI50 (SF-295)	GI50 (PC-3)	GI50 (NCI-H226)	GI50 (IGROV-1)	GI50 (NCI-H460)	GI50 (UO-31)	GI50 (ACHN)	GI50 (NCI/ADR-RES)	GI50 (HCT-116)	GI50 (SNB-19)	GI50 (SK-MEL-2)	GI50 (HCT-15)	GI50 (EKVX)	GI50 (NCI-H522)	GI50 (T47D)	GI50 (OVCAR-4)	GI50 (HT-29)	GI50 (MDA-MB-231)	GI50 (Hs-578T)
COc1cc([C@H]2OC[C@H]3[C@@H]2CO[C@@H]3c2cc(OC)c3c(c2)OCO3)cc(OC)c1OC	48.1 µM (inactive) and 47.9 µM (inactive)	46.1 µM (inactive) and 51.6 µM (inactive)	43.5 µM (inactive) and 47.4 µM (inactive)	92.3 µM (inactive) and 66.4 µM (inactive)	33.7 µM (inactive) and 33.9 µM (inactive)	44.6 µM (inactive) and 38.3 µM (inactive)	39.1 µM (inactive)	23.4 µM (inactive) and 33.3 µM (inactive)	41.6 µM (inactive) and 70.3 µM (inactive)	53.6 µM (inactive) and 43.8 µM (inactive)	> 100 µM (inactive)	34.4 µM and 39.8 µM	39.4 µM (inactive) and 40.9 µM (inactive)	32.7 µM (inactive) and 20.7 µM (inactive)	34.2 µM (inactive) and 37.9 µM (inactive)	48.5 µM (inactive) and 43.7 µM (inactive)	37.3 µM (inactive) and 54.6 µM (inactive)	> 100 µM (inactive) and 50.4 µM (inactive)	51.3 µM (inactive) and 59.3 µM (inactive)
Cc1c(C#N)c2nnn(-c3ccc(Cl)cc3)c(=O)n2c1-c1ccccc1	0.0531 µM (active)	0.0459 µM (active)	0.114 µM (active)	0.113 µM (active)	0.0991 µM (active)	3.29 µM (inactive)	0.929 µM (active)	0.0693 µM (active)	0.0649 µM (active)	0.195 µM (active)	0.0746 µM (active)	0.0628 µM	0.237 µM (active)	0.0586 µM (active)	6.58 µM (inactive)	0.351 µM (active)	0.0553 µM (active)	0.102 µM (active)	0.158 µM (active)
COc1ccc(OC)c(CCc2cc(OC)ccc2OC)c1	2.11 µM (inactive)	2.3 µM (inactive)	5.33 µM (inactive)	1.69 µM (inactive)	1.71 µM (inactive)	5.55 µM (inactive)	> 6.93 µM (inactive)	0.885 µM (active)	0.59 µM (active)	4.8 µM (inactive)	1.49 µM (inactive)	0.34 µM	7.53 µM (inactive)	1.39 µM (inactive)	> 2.12 µM (inactive)	> 10 µM (inactive)	1.06 µM (active)	3.66 µM (inactive)	2.69 µM (inactive)
OCCNCNc1nc(NCNCCO)nc(N(CNCCO)CNCCO)n1	30.6 µM (inactive)	22.3 µM (inactive)	22.6 µM (inactive)	22.6 µM (inactive)	21.9 µM (inactive)	33.2 µM (inactive)	27 µM (inactive)	24.4 µM (inactive)	18.7 µM (inactive)	17.1 µM (inactive)	21.5 µM (inactive)	25.2 µM	25.3 µM (inactive)	21.3 µM (inactive)	23.7 µM (inactive)	25.9 µM (inactive)	21.7 µM (inactive)	22.8 µM (inactive)	32 µM (inactive)
COc1ccc(C2C(C=O)C(N3CCN(C)CC3)=Nc3nc4ccccc4n32)cc1 (stereo not drawn)	19.9 µM (inactive)	16.3 µM (inactive)	16.7 µM (inactive)	16.3 µM (inactive)	25.2 µM (inactive)	14.4 µM (inactive)	18.2 µM (inactive)	17.4 µM (inactive)	14.6 µM (inactive)	15.3 µM (inactive)	13.1 µM (inactive)	17.8 µM	27.7 µM (inactive)	13 µM (inactive)	11.7 µM (inactive)	8.18 µM (inactive)	15.8 µM (inactive)	12.1 µM (inactive)	33 µM (inactive)
COC(=O)c1ccccc1CC1Cc2ccc3c(c2C1=O)CCC3 (stereo not drawn)	57.1 µM (inactive)	22.5 µM (inactive)	77.8 µM (inactive)	> 100 µM (inactive)	92.3 µM (inactive)	49.4 µM (inactive)	41.5 µM (inactive)	28.8 µM (inactive)	37.1 µM (inactive)	> 100 µM (inactive)	43.9 µM (inactive)	50 µM	25.6 µM (inactive)	22.1 µM (inactive)	19.7 µM (inactive)	29.9 µM (inactive)	27.9 µM (inactive)	46.2 µM (inactive)	43.3 µM (inactive)
CC(C)c1c(O)ccc2c1CCC1C(C)(C)CCCC21C (stereo not drawn)	17.9 µM (inactive)	17.6 µM (inactive)	17.7 µM (inactive)	16.3 µM (inactive)	17.4 µM (inactive)	17.4 µM (inactive)	17.1 µM (inactive)	16.9 µM (inactive)	17.2 µM (inactive)	18.2 µM (inactive)	16.7 µM (inactive)	18.9 µM	17.3 µM (inactive)	16.9 µM (inactive)	0.0173 µM (active)	17.5 µM (inactive)	16.9 µM (inactive)	19 µM (inactive)	26.7 µM (inactive)

From ChEMBL document CHEMBL1201862, “PubChem BioAssay data set” (2004)
